# Key:
# cocklebur = assay: Test B pre-/postemergence herbicide test; assay type: in vivo, Xanthium strumarium
# Method in brief: (§1)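 Plants compared with untreated controls 13–15 days post-treatment and given a visual 0–100 injury score. Applications: preemergence to seeds; postemergence at 1- to 4-leaf (2–18 cm); paddy species flooded, 2-leaf stage. Vehicle non-phytotoxic, surfactant included.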
# pigweed = assay: Test B pre-/postemergence herbicide test; assay type: in vivo, Amaranthus retroflexus; settings: for Pigweed plant response rating: postemergence, visual rating
# Method in brief: (§2)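 Visual rating, 0 (no effect) to 100 (complete control), versus untreated controls after 13–15 d in greenhouse. Pre- and postemergence applications (postemergence plants 2–18 cm, 1–4 leaves); flooded paddy arm at 2-leaf stage. Compounds in non-phytotoxic solvent plus surfactant.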
# rice = assay: Test B flooded paddy test; assay type: in vivo, Oryza sativa; settings: 1000 g ai/ha, visual rating, scale 0 to 100 (0 no effect, 100 complete control), 13 to 15 days
# Method in brief: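 Read-out: visual comparison with controls, scored 0 to 100, where 100 means complete control and 0 no effect. Formulated chemicals were applied postemergence to plants 2–18 cm tall (1- to 4-leaf), or to flooded-paddy plants at the 2-leaf stage, then held 13 to 15 days under glass.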
# ducksalad = assay: Test B flooded paddy test; assay type: in vivo, Heteranthera limosa; settings: 1000 g ai/ha, visual rating, scale 0 to 100 (0 no effect, 100 complete control), 13 to 15 days
# Method in brief: (§3)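 Formulated test chemicals went onto postemergence plants measuring 2 to 18 cm, at one to four leaves. For the paddy assay, species had reached two leaves. Scoring took place 13–15 days later by eye, relative to untreated plants, using 0 for no effect up to 100 for full control.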
# barnyardgrass [1] = assay: Test B flooded paddy test; assay type: in vivo, Echinochloa crus-galli; settings: 1000 g ai/ha, visual rating, scale 0 to 100 (0 no effect, 100 complete control), 13 to 15 days
# Method in brief: as §3
# morningglory = assay: Test B pre-/postemergence herbicide test; assay type: in vivo, Ipomoea coccinea; settings: for Morningglory plant response rating: postemergence, visual rating
# Method in brief: as §1
# wheat = assay: Test B postemergence herbicide test; assay type: in vivo, Triticum aestivum; parameters: key to Wheat plant response rating: 0 = no effect, 100 = complete control; settings: scale 0 (no effect) to 100 (complete control); for Plant response rating, Wheat: Postemergence, 500 g ai/ha, visual rating after 13 to 15 days; for Wheat plant response rating: postemergence, 125 g ai/ha, visual rating
# Method in brief: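 Treated at 2-leaf (paddy) or 1–4-leaf, 2–18 cm (postemergence); greenhouse 13–15 d; visual score vs control, 0 none to 100 complete control; dash = not tested.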
# giant foxtail = assay: Test B pre-/postemergence herbicide test; assay type: in vivo, Setaria faberi
# Method in brief: as §2
# large crabgrass = assay: Test B pre-/postemergence herbicide test; assay type: in vivo, Digitaria sanguinalis
# Method in brief: as §2
# blackgrass = assay: Test B postemergence herbicide test; assay type: in vivo, Alopecurus myosuroides; settings: scale 0 (no effect) to 100 (complete control); for Plant response rating, Blackgrass: Postemergence, 500 g ai/ha, visual rating after 13 to 15 days; for Blackgrass plant response rating: postemergence, 125 g ai/ha, visual rating
# Method in brief: as §3
# Surinam grass = assay: Test B pre-/postemergence herbicide test; assay type: in vivo, Urochloa decumbens; settings: for Surinam Grass plant response rating: postemergence, visual rating
# Method in brief: as §2
# [2] = test system: small flower umbrella sedge; assay: Test B flooded paddy test; assay type: in vivo, Cyperus difformis; settings: 1000 g ai/ha, visual rating, scale 0 to 100 (0 no effect, 100 complete control), 13 to 15 days
# Method in brief: as §3
# barnyardgrass [3] = assay: Test B pre-/postemergence herbicide test; assay type: in vivo, Echinochloa crus-galli
# Method in brief: as §1
# lambsquarters = assay: Test B pre-/postemergence herbicide test; assay type: in vivo, Chenopodium album; settings: for Lambsquarters plant response rating: postemergence, visual rating
# Method in brief: as §2
# velvetleaf = assay: Test B pre-/postemergence herbicide test; assay type: in vivo, Abutilon theophrasti; settings: for Velvetleaf plant response rating: postemergence, visual rating
# Method in brief: as §2
# [4] = Postemergence, 500 g ai/ha, visual rating after 13 to 15 days, scale 0 (no effect) to 100 (complete control)
# [5] = Preemergence, 500 g ai/ha, scale 0 to 100
# [6] = postemergence, 125 g ai/ha, visual rating, scale 0 (no effect) to 100 (complete control)
# [7] = preemergence, 125 g ai/ha, 0 to 100 scale, 0 is no effect, 100 is complete control
# [8] = 125 g ai/ha, scale 0 (no effect) to 100 (complete control)
# [9] = 500 g ai/ha, visual rating 0-100, 0 no effect, 100 complete control, preemergence
compound,measurement,setting,value
C=CCOC(=O)c1cccc(NC(=O)c2cc(C(C)(C)C)nn2CC)c1 [Compound 85],"Plant response rating, Cocklebur",cocklebur; [4],100
same,Cocklebur plant response rating,cocklebur; [5],0
same,Cocklebur plant response rating,cocklebur; [6],90
same,"Plant response rating, Cocklebur",cocklebur; [7],0
same,"Plant response rating, Pigweed",pigweed; [4],100
same,Pigweed plant response rating,pigweed; [8],100
same,"Plant response rating, Pigweed",pigweed; [7],0
same,Rice plant response rating,rice,40
same,Ducksalad plant response rating,ducksalad,20
same,Barnyardgrass plant response rating,barnyardgrass [1],40
same,"Plant response rating, Morningglory",morningglory; [4],100
same,Morningglory plant response rating,morningglory; [8],50
same,"Plant response rating, Morningglory",morningglory; [7],0
same,"Plant response rating, Wheat",wheat,60
same,Wheat plant response rating,wheat,50
same,"Plant response rating, Foxtail, Giant",giant foxtail; [4],50
same,"Foxtail, Giant plant response rating",giant foxtail; [5],0
same,"Foxtail, Giant plant response rating",giant foxtail; [6],20
same,"Plant response rating, Foxtail, Giant",giant foxtail; [7],0
same,"Plant response rating, Crabgrass, Large",large crabgrass; [4],80
same,"Crabgrass, Large plant response rating",large crabgrass; [5],0
same,"Crabgrass, Large plant response rating",large crabgrass; [6],50
same,"Plant response rating, Crabgrass, Large",large crabgrass; [7],0
same,"Plant response rating, Blackgrass",blackgrass,20
same,Blackgrass plant response rating,blackgrass,10
same,"Plant response rating, Surinam Grass",Surinam grass; [4],70
same,Surinam Grass plant response rating,Surinam grass; [8],60
same,"Plant response rating, Surinam Grass",Surinam grass; [7],0
same,"Sedge, Umbrella plant response rating",[2],60
same,"Plant response rating, Barnyardgrass",barnyardgrass [3]; [4],80
same,Barnyardgrass plant response rating,barnyardgrass [3]; [5],0
same,Barnyardgrass plant response rating,barnyardgrass [3]; [6],60
same,"Plant response rating, Barnyardgrass",barnyardgrass [3]; [7],0
same,"Plant response rating, Lambsquarters",lambsquarters; [4],60
same,Lambsquarters plant response rating,lambsquarters; [8],50
same,"Plant response rating, Lambsquarters",lambsquarters; [7],0
same,"Plant response rating, Velvetleaf",velvetleaf; [4],80
same,Velvetleaf plant response rating,velvetleaf; [8],60
same,"Plant response rating, Velvetleaf",velvetleaf; [7],0
CC(=NO)c1cccc(NC(=O)c2cc(C(C)(C)C)nn2C)c1 [Compound 102],"Plant response rating, Cocklebur",cocklebur; [9],0
same,"Plant response rating, Cocklebur",cocklebur; [4],50
same,Cocklebur plant response rating,cocklebur; [6],30
same,"Plant response rating, Cocklebur",cocklebur; [7],0
same,"Plant response rating, Pigweed",pigweed; [9],100
same,"Plant response rating, Pigweed",pigweed; [4],100
same,Pigweed plant response rating,pigweed; [8],80
same,"Plant response rating, Pigweed",pigweed; [7],90
same,Rice plant response rating,rice,50
same,Ducksalad plant response rating,ducksalad,90
same,Barnyardgrass plant response rating,barnyardgrass [1],80
same,"Plant response rating, Morningglory",morningglory; [9],100
same,"Plant response rating, Morningglory",morningglory; [4],30
same,Morningglory plant response rating,morningglory; [8],10
same,"Plant response rating, Morningglory",morningglory; [7],50
same,"Plant response rating, Wheat",wheat,20
same,Wheat plant response rating,wheat,0
same,"Plant response rating, Foxtail, Giant",giant foxtail; [9],80
same,"Plant response rating, Foxtail, Giant",giant foxtail; [4],30
same,"Foxtail, Giant plant response rating",giant foxtail; [6],10
same,"Plant response rating, Foxtail, Giant",giant foxtail; [7],30
same,"Plant response rating, Crabgrass, Large",large crabgrass; [9],100
same,"Plant response rating, Crabgrass, Large",large crabgrass; [4],70
same,"Crabgrass, Large plant response rating",large crabgrass; [6],10
same,"Plant response rating, Crabgrass, Large",large crabgrass; [7],100
same,"Plant response rating, Blackgrass",blackgrass,20
same,Blackgrass plant response rating,blackgrass,0
same,"Plant response rating, Surinam Grass",Surinam grass; [9],40
same,"Plant response rating, Surinam Grass",Surinam grass; [4],100
same,Surinam Grass plant response rating,Surinam grass; [8],70
same,"Plant response rating, Surinam Grass",Surinam grass; [7],20
same,"Sedge, Umbrella plant response rating",[2],100
same,"Plant response rating, Barnyardgrass",barnyardgrass [3]; [9],90
same,"Plant response rating, Barnyardgrass",barnyardgrass [3]; [4],40
same,Barnyardgrass plant response rating,barnyardgrass [3]; [6],0
same,"Plant response rating, Barnyardgrass",barnyardgrass [3]; [7],80
same,"Plant response rating, Lambsquarters",lambsquarters; [9],100
same,"Plant response rating, Lambsquarters",lambsquarters; [4],20
same,Lambsquarters plant response rating,lambsquarters; [8],10
same,"Plant response rating, Lambsquarters",lambsquarters; [7],100
same,"Plant response rating, Velvetleaf",velvetleaf; [9],70
same,"Plant response rating, Velvetleaf",velvetleaf; [4],20
same,Velvetleaf plant response rating,velvetleaf; [8],0
same,"Plant response rating, Velvetleaf",velvetleaf; [7],0
